In patent publication US10646440B2, “Sanguisorbigenin polymer micelle and preparative methods thereof” (SICHUAN INLU WEITE PHARMACEUTICAL TECHNOLOGY CO., LTD., priority 2016, dated 2020):

System: KM-mice given cyclophosphamide (bone marrow suppression)
Experiment: Pharmacodynamic experiment: cyclophosphamide-induced bone marrow suppression, peripheral blood counts
Format: in vivo
[1] = cyclophosphamide 120 mg/kg i.p. day 1, 2.5 mg/kg for 6 days, blood on day 7, mean ± s

With `CC1CC[C@]2(C(=O)O)CC[C@]3(C)C(=CCC4[C@@]5(C)CCC(O)C(C)(C)C5CC[C@]43C)C2[C@]1(C)O` (stereo partly drawn) [Sanguisorbigenin, 3β,19β-dihydroxyurs-12-en-28-oic acid] the “numbers of NEUT and HGB in peripheral blood compared with model group” value (2.5 mg/kg, P<0.05) was “did not show significant difference”, the “numbers of WBC, RBC, and PLT in peripheral blood compared with model group” value (2.5 mg/kg, P<0.05) was “did not show significant difference” and the “HGB in peripheral blood” value [1] was 45.47 ± 8.39 ^ g/L. The “NEUT in peripheral blood” value [1] was 2.56 ± 0.13 ×10^9, the “PLT in peripheral blood” value [1] was 231.16 ± 15.27 ×10^9 and the “RBC in peripheral blood” value [1] was 3.15 ± 0.19 ×10^12. For the same compound, the “WBC in peripheral blood” value [1] was 2.79 ± 0.26 ×10^9.
